Consider eleven molecules from PMC5729604, “Dual inhibitors of hepatitis C virus and hepatocellular carcinoma: design, synthesis and docking studies” (Future Science OA, 2017).

Values after ≈ are worked out from the molar mass of the structure shown.

A word on the IC50: it is the concentration at which inhibition is half-maximal. Usually melting point stands for the temperature, or range, at which the solid turns liquid.

Data set [1] concerns human HCC cell line HepG2. The experiment in a line: cells. It counts as cell-based. To be noted: Homo sapiens, HepG2, 72 h, 72 h, neutral red; Supplementary Table 2; read-out: Anticancer (HepG2) IC50. As for the experimental part:
The safe compounds on RBCs (5a-g, 5i-l, 5p-r, 5v-w, 6b-g) were screened for their potential anticancer activity against human HCC cell line HepG2. HepG2 cells were exposed to the test compounds, then viability of cells was measured using neutral red uptake assay as described by Borenfreund and Puerner. This assay depends on the fact that neutral red dye can be incorporated into the lysosomes of living cells providing a quantitative assay to the cytotoxic effects. The results were interpreted to calculate both the concentration causing 50% cancer cell death (IC50) of each compound and the maximum safe concentration that cause 100% viability (LD0; to be used in the in vitro anti-HCV testing) using GraphPad InStat 3.0 software (Figure 5 & Supplementary Table 2).
HepG2 cells were routinely maintained as adherent cell cultures in RPMI-1640 medium (Lonza Group Ltd, Basel, Switzerland) supplemented with 10% fetal bovine serum (FBS; Lonza, IL, USA) at 37°C in a humidified air incubator containing 5% CO2. Cells were subcultured for 2 weeks before assay. Cell viability was assessed using trypan blue exclusion method.
HepG2 cells were washed twice in RPMI-1640 medium supplemented with 200 μM L-glutamine (Lonza) and […] 4-(2-hydroxyethyl)-1-piperazineethanesulfonic acid (HEPES) buffer (Lonza). The cells were suspended at 3 × 10^4 cells/ml in RPMI culture medium (RPMI supplemented medium and 10% FBS). The appropriate number of cells was chosen to be 3 × 10^3 cells/well (100 μl of the prepared suspension), and the cells were left to adhere on the polystyrene 96-well plates in an incubator at 37°C, 5% CO2 and 95% humidity for 24 h. The cells were washed once using RPMI supplemented medium.
A 2 mg/ml stock solution of each compound was prepared in DMF and filtered using a 0.2 μM syringe filter. The desired concentrations (20, 10, 5, 2.5 and 1.25 μg/ml) were prepared using serial dilution in a 96-well plate. Compound wells were prepared by adding 100 μl of the previously prepared concentrations to a 100 μl of HepG2 cells suspension. Parallel concentrations of the solvent were prepared to be used as controls. 5-Fluorouracil was used as a positive control. Control wells were prepared by adding 100 μl culture media to a 100 μl of HepG2 cells suspension. Blank wells contained 200 μl of culture media only (without cells or compound solution). Each set of samples was pipetted in duplicate. The plate was gently shaken, then incubated at 37°C, 5% CO2 for 72 h.
After incubation, the plate was centrifuged (2000 r.p.m. for 10 min). The media were discarded by inversion over paper towels. A working solution (100 μg/ml) of neutral red stain (Bio Basic Inc, Markham, Canada) was prepared, and 100 μl of this solution was added to each well, then the plate was gently shaken. The plate was incubated at 37°C in humidified 5% CO2 for 3 h, and then centrifuged (2000 r.p.m. for 10 min). Excess dyes were discarded, and the cells were fixed with 100 μl fixing solution (0.5% formalin with 1% calcium chloride [Sigma-Aldrich]) for 1 min. Cells were destained in 100 μl destaining solution (50% ethanol with 1% glacial acetic acid [Sigma-Aldrich]) for 5 min by shaking. The stain intensity was assayed using automated microplate reader spectrophotometer adjusted at 490 nm. Surviving cell fraction was calculated according to the following equation: [drawing 3]
The results were interpreted to calculate both the concentration causing 50% cancer cell death (IC50) of each compound and the maximum safe concentration that cause 100% viability (LD0; to be used in the in vitro anti-HCV testing) using GraphPad InStat 3.0 software.

A short description of data set [2]: Solubility in DMF or DMSO under experimental conditions. The class given is physicochemical.
A further data set is described as follows: In vitro hemolytic assay. The class given is cell-based. Conditions: 2% erythrocyte suspension (washed red blood cells); 2% erythrocyte suspension, 3 μl of 1 mg/ml compound in DMF per 240 μl well, 37°C 30 min, absorbance 405 nm; <5% considered nontoxic. As for the experimental part:
(§1) Compounds 5a-x and 6a-h were subjected to the in vitro hemolytic assay to identify those which cause hemolysis to red blood cells (RBCs). Consequently, these compounds would be toxic in vivo so they were excluded from further biological screening.
(§2) Blood samples (5 ml) were freshly collected into heparinized tubes and were centrifuged (1000 r.p.m. for 20 min) at room temperature. The plasma and buffy coat were removed by Pasteur pipette, and the collected erythrocytes were washed three-times using isotonic buffer solution (0.9% sodium chloride [Sigma-Aldrich, MO, USA]) by centrifugation (2500 r.p.m. for 10 min). A two percent erythrocyte suspension was prepared to be used in the assay.
(§3) A 1 mg/ml stock solution of each compound was prepared in DMF (Sigma-Aldrich). Compound wells were prepared by adding 3 μl of the compound solution to 117 μl isotonic buffer solution and 120 μl erythrocyte suspension. Compounds color blank wells were prepared by adding 3 μl compound to 237 μl isotonic buffer solution. Solvent (DMF) wells were prepared by adding 3 μl DMF to 117 μl isotonic buffer solution and 120 μl erythrocyte suspension. Positive control wells (representing 100% hemolysis) were prepared by adding 120 μl erythrocyte suspension to 120 μl distilled water, while negative control wells (representing 0% hemolysis) were prepared by adding 120 μl erythrocyte suspension to 120 μl isotonic buffer solution. Finally, blank wells contained only 240 μl isotonic buffer solution. Each set of samples was pipetted in triplicate. The microtiter plate was then shaken well on bench, incubated at 37°C for 30 min then centrifuged (2000 rpm for 5 min) at room temperature.
(§4) A fraction of the supernatant layer (150 μl) of each well was transferred to another 96-well microtiter plate. Erythrocyte hemolysis was determined by reading the absorbance (A) of liberated hemoglobin at 405 nm in the supernatant fraction compared with the 100% hemolysis of erythrocyte. The average value was calculated from triplicate assay: [drawing 2]

The subject of a further data set is red blood cells (RBCs). In words: In vitro hemolytic assay. The class given is cell-based. To be noted: <5% hemolysis nontoxic, 5% or more toxic and hemolytic. As for the experimental part: as §1, §2, §3, §4

In the case of `O=c1[nH]cc(F)c(=O)[nH]1` [Compound 5-FU, 5-Fluorouracil, reference compound], the IC50 in data set [1] worked out at 0.9 µg/mL (≈ 6.92 µM).
`COc1ccc(N2C(=O)C(=Cc3cn(-c4ccccc4)nc3-c3ccc(Cl)cc3)SC2=NN=C(C)c2cc3ccccc3o2)cc1` [Compound 5h, 2-[1-(Benzofuran-2-yl)ethylidenehydrazono]-5-{[3-(4-chlorophenyl)-1-phenyl-1H-pyrazol-4-yl]methylene}-3-(4-methoxyphenyl)thiazolidin-4-one]: the melting point is 280 to 282 °C. The “solubility in DMF or DMSO” value in data set [2] is recorded as “could not be dissolved”.
`CC(=NN=C1SC(=Cc2cn(-c3ccccc3)nc2-c2ccccc2)C(=O)N1c1ccccc1)c1nc2ccccc2[nH]1` [Compound 5m, 2-[1-(1H-Benzimidazole-2-yl)ethylidenehydrazono]-5-[(1,3-Diphenyl-1H-pyrazol-4-yl)methylene]-3-phenylthiazolidin-4-one] displayed a melting point of more than 300 °C. Also, in the data set “In vitro hemolytic assay”, the hemolysis at 30 min, 12.5 µg/ml amounted to 11.7%.
On the same counts, the results for `CC(=NN=C1SC(=Cc2cn(-c3ccccc3)nc2-c2ccc(Cl)cc2)C(=O)N1c1ccccc1)c1nc2ccccc2[nH]1` [Compound 5n, 2-[1-(1H-Benzimidazole-2-yl)ethylidenehydrazono]-5-{[3-(4-chlorophenyl)-1-phenyl-1H-pyrazol-4-yl]methylene}-3-phenylthiazolidin-4-one] are more than 300 °C and 9.52%.
On the same counts, the results for `COc1ccc(-c2nn(-c3ccccc3)cc2C=C2SC(=NN=C(C)c3nc4ccccc4[nH]3)N(c3ccccc3)C2=O)cc1` [Compound 5o, 2-[1-(1H-Benzimidazole-2-yl)ethylidenehydrazono]-5-{[3-(4-methoxyphenyl)-1-phenyl-1H-pyrazol-4-yl]methylene}-3-phenylthiazolidin-4-one] are more than 300 °C and 15.1%.
On to `COc1ccc(N2C(=O)C(=Cc3cn(-c4ccccc4)nc3-c3ccccc3)SC2=NN=C(C)c2nc3ccccc3[nH]2)cc1` [Compound 5s, 2-[1-(1H-Benzimidazole-2-yl)ethylidenehydrazono]-5-[(1,3-Diphenyl-1H-pyrazol-4-yl)methylene]-3-(4-methoxyphenyl)thiazolidin-4-one], for which the “solubility in DMF or DMSO” value in data set [2] is reported as “could not be dissolved”.
The same measure, in the same setting: to `COc1ccc(N2C(=O)C(=Cc3cn(-c4ccccc4)nc3-c3ccc(Cl)cc3)SC2=NN=C(C)c2nc3ccccc3[nH]2)cc1` [Compound 5t, 2-[1-(1H-Benzimidazole-2-yl)ethylidenehydrazono]-5-{[3-(4-chlorophenyl)-1-phenyl-1H-pyrazol-4-yl]methylene}-3-(4-methoxyphenyl)thiazolidin-4-one] belongs “could not be dissolved”; to `COc1ccc(-c2nn(-c3ccccc3)cc2C=C2SC(=NN=C(C)c3nc4ccccc4[nH]3)N(c3ccc(OC)cc3)C2=O)cc1` [Compound 5u, 2-[1-(1H-Benzimidazole-2-yl)ethylidenehydrazono]-5-{[3-(4-methoxyphenyl)-1-phenyl-1H-pyrazol-4-yl]methylene}-3-(4-methoxyphenyl)thiazolidin-4-one], “could not be dissolved”.
The molecule `COc1ccc(-c2nn(-c3ccccc3)cc2C=C2SC(=NN=C(C)c3nc4ccccc4[nH]3)N(C3CCCCC3)C2=O)cc1` [Compound 5x, 2-[1-(1H-Benzimidazole-2-yl)ethylidenehydrazono]-5-{[3-(4-methoxyphenyl)-1-phenyl-1H-pyrazol-4-yl]methylene}-3-cyclohexylthiazolidin-4-one] registered a melting point of 215 to 217 °C. Besides, the “toxicity to RBCs (hemolysis), in words” value with red blood cells (RBCs) is “cause hemolysis to RBCs”. The molecule also showed a hemolysis at 30 min, 12.5 µg/ml in the data set “In vitro hemolytic assay” of 8.74%.
As to `CC(=NN=C1SC(=C2C(=O)Nc3ccccc32)C(=O)N1c1ccccc1)c1cc2ccccc2o1` [Compound 6a, 2-[1-(Benzofuran-2-yl)ethylidenehydrazono]-5-(2-oxoindolin-3-ylidene)-3-phenylthiazolidin-4-one], in the data set on red blood cells (RBCs), the “toxicity to RBCs (hemolysis), in words” value is “cause hemolysis to RBCs”. This molecule also displayed a hemolysis at 30 min, 12.5 µg/ml in “In vitro hemolytic assay” of 11.2%.
On to `CC(=NN=C1SC(=C2C(=O)Nc3ccccc32)C(=O)N1C1CCCCC1)c1nc2ccccc2[nH]1` [Compound 6h, 2-[1-(1H-Benzimidazole-2-yl)ethylidenehydrazono]-5-(2-oxoindolin-3-ylidene)-3-cyclohexylthiazolidin-4-one], for which the “toxicity to RBCs (hemolysis), in words” value with red blood cells (RBCs) is “cause hemolysis to RBCs”. The hemolysis at 30 min, 12.5 µg/ml in “In vitro hemolytic assay” came to 7.56%.
